Data set [1] deals with autologous primary ovarian cancer cells endogenously expressing CA125.
Description: Cytotoxicity was tested in a 5 hr ^51Cr-release assay against autologous primary ovarian cancer target cells and unpulsed autologous LCL at different Effector cell: Target cell ratios (E:T). Blocking monoclonal antibody (MAb) against non-polymorphic HLA A, B, and C determinants (W6/32) was also used.
Cytotoxicity was tested in a 5 hr 5 Cr-release assay against autologous primary ovarian cancer target cells and autologous LCL at a 20:1 ratio. Blocking monoclonal antibody against non-polymorphic HLA A, B, and C determinants (W6/32) was also used.
Briefly, viable tumor tissue was mechanically minced in RPMI 1640 to portions no larger than 1-3 mm^3 and washed twice with RPMI 1640. The portions of minced tumor were then placed into 250 ml flasks containing 30 ml of enzyme solution [0.14% collagenase Type 1 and 0.01% DNAse 2000 KU/mg; (Sigma)] in RPMI 1640, and incubated on a magnetic stirring apparatus overnight at 4° C. Enzymatically dissociated tumor was then filtered through 150 μm nylon mesh to generate a single cell suspension. The resultant cell suspension was then washed twice in RPMI 1640 plus 10% FBS (fetal bovine serum). Purity of fresh tumor cultures was tested by morphology, immunochemistry staining and/or flow cytometry with antibodies against cytokeratins. Only cell lines containing more than 99% tumor cells were evaluated in cytotoxicity assays. […]
For data set [2], the system named is autologous primary ovarian cancer cells endogenously expressing TADG-12. Description: 51Cr-release cytotoxicity against autologous ovarian cancer cells expressing TADG-12. The format is cell-based, human. The procedure: FIG. 9. […] A representative experiment from patient 1 is shown.
FIG. 10. CD8^+ CTL recognition of autologous ovarian cancer cells (i.e., K ova) endogenously expressing TADG-12 by TADG-12 P5-stimulated lymphocytes. […] A representative experiment from patient 1 is shown.
Cryopreserved peripheral blood leukocytes (PBL) from patient # 3, harboring advanced stage ovarian cancer, have been used for the generation of DC. Monocyte-derived DC were cultured in AIM-V (Gibco-BRL) supplemented with GM-CSF and IL-4 (1). After 5 days' culture, DC maturation was induced by addition of TNFα, IL-1β and PGE2 (1). Mature DC were pulsed for 1-2 hr at 37° C. with 50 μg/ml of all 8 TADG-12-derived peptides, and washed twice before culture with PBL at a responder:stimulator ratio of 30:1. The culture medium was AIM-V plus 5% human AB serum (Gemini Bioproducts). No IL-2 was added. After 7 days, responder T cells were collected and restimulated with peptide-pulsed DC. For the second and third DC stimulations, the medium was supplemented with 50-100 U/ml IL-2, and the culture period extended to 14 days. After the third cycle, CD8+ T cells were recovered by positive selection with anti-CD8 magnetic beads (Dynal). Subsequent restimulations (passages) of CD8+ T cells used peptide-loaded autologous PBL as antigen-presenting cells.

The subject of data set [3] is primary ovarian cancer cell lines. Description: Real time PCR of CA125 and TADG-12 mRNA after IFN-γ. The format is cell-based, human. Conditions: after exposure to IFN-γ, data not shown. The procedure: Importantly, because tissue digestion and prolonged in vitro cell culture may potentially alter CA125 and TADG-12 antigen expression, primary ovarian cancer cell lines were evaluated before and after several in vitro passages for CA125 and TADG-12 expression by real time PCR and flow cytometry. Briefly, RNA extraction was performed on autologous primary ovarian cancer cell lines when tumor cells were 50% to 80% confluent after no passages (i.e., P0) and up to a maximum of twenty passages in vitro. RNA isolation was performed using TRIzol Reagent (Invitrogen) according to the manufacturer's instructions. To verify integrity, 4 μg of RNA from each sample was run in 1% agarose gel using 18S+28S Ribosomal RNA (Sigma) as positive control. Briefly, five μg of total RNA from each sample was reverse-transcribed using SuperScript III first strand cDNA synthesis (Invitrogen). […] Quantitative-RT-PCR was performed with an ABI Prism 7000 Sequence Analyzer using the manufacturer's recommended protocol (Applied Biosystems, Foster City, Calif.) to evaluate expression of CA125 and TADG-12 in primary tumors. […] Primers specific for 18S ribosomal RNA and empirically determined ratios of 18S competimers (Applied Biosystems) were used to control for the amount of cDNA generated from each sample. […]
(In general: In qPCR the cycle at which signal appears reflects the starting amount.)

Data set [4] has as its system primary ovarian cancer cells. The data set can be described thus: Flow cytometry of MHC class I, HLA-A2 and ICAM-1 on primary ovarian tumor cells after IFN-γ. The format is cell-based, human. The following applies: 500 U/ml for 48 hrs. As to the method: Briefly, tumor cells were harvested with 0.25 percent trypsin in HBBS (Gibco, Grand Island, N.Y.) and washed once in complete medium. Cell suspensions were counted and distributed into 12×75 mm tubes at 5×10^5 cells/tube. Mouse monoclonal antibodies [anti-HLA class I (MAb W6/32); anti-HLA-A2 (BB7-2) and anti-HLA Class II (MAb CR3-43) Accurate Chemical and Scientific Corporation, Westbury, N.Y.); and anti-ICAM-1 (MAb LB-2; Becton Dickinson)] were diluted in cold assay buffer (PBS, pH 7.2, supplemented with 0.1% FCS) and added in a 50-μl volume. A mouse IgG preparation (MAb IgG2a; Becton Dickinson) was used as negative control. Tumor cells were analyzed by FACScan (Becton Dickinson) utilizing Cell Quest software (Becton Dickinson).
In contrast, MHC class II molecule expression was negligible in all 3 primary tumor cell lines tested (data not shown).
In general terms: In flow cytometry, cells or beads pass a laser one at a time.

For data set [5], the system named is autologous LCL pulsed with CA125-derived peptides. Description: 51Cr-release cytotoxicity of peptide-specific CD8+ T cells against LCL pulsed with CA125 peptides. The format is cell-based, human. The following applies: CD8+ T cells from a healthy donor, autologous LCL pulsed with 50 μg/ml peptide, 5 hour 51Cr-release. The procedure:
Dendritic cells were loaded with the CA125 peptides of Table 3 and used to amplify CD8+ T cells cytotoxic against cells displaying the cognate peptide as described in Example 5. The amplified CD8+ T cell lines were tested for cytoxicity against autologous lymphoblastoid cell lines (LCL) pulsed with the CA125 peptide used to amplify the T cells. Cytotoxicity was tested in a 5 hour ^51Cr-release assay against autologous LCL and autologous LCL pulsed with 50 μg/ml peptide (5, 6). […] Natural killer (NK)-sensitive K562 cells were not lysed (data not shown).

For the next data set, the system named is autologous unpulsed LCL. The data set can be described thus: 51Cr-release cytotoxicity against unpulsed autologous LCL. The format is cell-based, human. The following applies: CTL stimulated by CA125 P10-pulsed autologous DC.

“Also recorded” adds a separate entry of the source. Where no end group is shown, it is not given here.

Take FMVPFTLNFT [P11 CA125/10, FMVPfTLNFT]: in data set [1], the “cytotoxicity against autologous primary ovarian cancer cells endogenously expressing CA125” value was “Unlike peptides 7, 11 and 12, only the CA125 YTLDrDSLYV (SEQ ID NO:10) peptide (P10) was found to be reliably cytotoxic”. With “IFN-γ: Cytokine to which primary ovarian tumor cells were exposed (500 U/ml for 48 hrs)”, the “effect of IFN-γ exposure of tumor cells on recognition and killing by peptide-specific CTL” value in data set [2] (exposure for 48 hrs) was “further increased recognition and killing of autologous ovarian cancer cells; also recorded: significantly increase the cytotoxic activity”. Moreover, the “expression levels of CA125 and TADG-12 mRNA” value in data set [3] is on record as “did not detect any change”. In data set [4], the “MHC class I, HLA-A2 and ICAM-1 expression levels” value is reported as “markedly up-regulate”. Regarding “LLMPfTLNFT (LLMPFTLNFT; listed as Homo sapiens) [P9 CA125/10]”, in data set [5], the “% Lysis” value came out at 0%.

For TLLVTGTSRV [P12 CA125/10, TLLVtGTSRV], the “cytotoxicity against autologous primary ovarian cancer cells endogenously expressing CA125” value in data set [1] was “Unlike peptides 7, 11 and 12, only the CA125 YTLDrDSLYV (SEQ ID NO:10) peptide (P10) was found to be reliably cytotoxic”. For the substance YLPKSWTIQV [P5 TADG12/10, YLPKsWTIQV], the “cytotoxicity against autologous primary ovarian cancer cells endogenously expressing TADG-12” value in data set [2] (TADG-12 peptides, CTL stimulated by peptide-pulsed DC, 5 hr 51Cr-release, listed as SEQ ID NO: 17) is given as “consistently lyse autologous ovarian tumor cells expressing TADG-12”.

Turning to YTLDRDSLYV [P10 CA125/10, YTLDrDSLYV], in the data set on autologous unpulsed LCL, the “cytotoxicity against autologous unpulsed LCL” value is given as “not against autologous unpulsed LCL”.

The values above are taken from patent US8097242B2, “Target CA125 peptides for cancer immunotherapy” (The Board of Trustees of the University of Arkansas, priority 2006, dated 2012).
